# Data reported in ChEMBL document CHEMBL1128607, “Structure-based design of novel HIV protease inhibitors: carboxamide-containing 4-hydroxycoumarins and 4-hydroxy-2-pyrones as potent nonpeptidic inhibitors” (J Med Chem, 1995).
# Biological target: Human immunodeficiency virus type 1 protease (Human immunodeficiency virus 1, UniProt Q72874)
# Experiment: Ability to inhibit HIV protease purified and refolded from Escherichia coli inclusion bodies
row,SMILES,Ki
1,CCC(c1cccc(NC(=O)CCCNC(=O)OC(C)(C)C)c1)c1c(O)c2ccccc2oc1=O (stereo not drawn),1600 nM
2,CCC(c1cccc(NC(=O)[C@H](C)NC(=O)OC(C)(C)C)c1)c1c(O)c2ccccc2oc1=O (stereo partly drawn),170 nM
3,COc1ccc2c(O)c(C(c3ccccc3)C3CC3)c(=O)oc2c1 (stereo not drawn),170 nM
4,CCC(c1ccccc1)c1c(O)c2ccc(OC)cc2oc1=O (stereo not drawn),560 nM
5,CCC(c1cccc(C(=O)N[C@H](C(=O)NCc2ccccn2)C(C)CC)c1)c1c(O)oc2ccccc2c1=O (stereo partly drawn),400 nM
6,CCC(Cc1ccccc1)c1cc(O)c(C(c2cccc(NC(=O)[C@H](Cc3c[nH]cn3)NC(=O)OC(C)(C)C)c2)C2CC2)c(=O)o1 (stereo partly drawn),4 nM
7,CCC(c1cccc(NC(=O)[C@@H]2CCCN2C(=O)OC(C)(C)C)c1)c1c(O)c2ccccc2oc1=O (stereo partly drawn),3600 nM
8,CCC(Cc1ccccc1)c1cc(O)c(C(c2cccc(NC(=O)[C@H](Cc3cn(S(=O)(=O)c4ccc(C)cc4)cn3)NC(=O)OC(C)(C)C)c2)C2CC2)c(=O)o1 (stereo partly drawn),19 nM
9,CCC(Cc1ccccc1)c1cc(O)c(C(c2cccc(NC(=O)Cc3ccncc3)c2)C2CC2)c(=O)o1 (stereo not drawn),44 nM
10,COc1ccc2c(O)c(C(c3cccc(NC(=O)CCNC(=O)OC(C)(C)C)c3)C3CC3)c(=O)oc2c1 (stereo not drawn),28 nM
11,CCC(c1cccc(NC(=O)CCNC(=O)OC(C)(C)C)c1)c1c(O)c2ccccc2oc1=O (stereo not drawn),280 nM
12,CCC(c1cccc(NC(=O)CCn2ccc3ccccc32)c1)c1c(O)c2ccccc2oc1=O (stereo not drawn),110 nM
13,CC(C)(C)OC(=O)NCCC(=O)Nc1cccc(C(c2c(O)oc3ccccc3c2=O)C2CC2)c1 (stereo not drawn),86 nM
14,CCC(Cc1ccccc1)c1cc(O)c(C(c2cccc(NC(=O)[C@H](C)NC(=O)OC(C)(C)C)c2)C2CC2)c(=O)o1 (stereo partly drawn),15 nM
15,CCC(c1cccc(C(=O)NCc2nc3ccccc3[nH]2)c1)c1c(O)oc2ccccc2c1=O (stereo not drawn),4400 nM
16,O=c1oc2ccccc2c(O)c1C(c1ccccc1)C1CC1 (stereo not drawn),350 nM
17,CCC(c1cccc(NC(=O)CCNC(=O)OC(C)(C)C)c1)c1c(O)oc2cc(OC)ccc2c1=O (stereo not drawn),170 nM
18,CCC(c1cccc(NC(=O)CNC(=O)OC(C)(C)C)c1)c1c(O)c2ccccc2oc1=O (stereo not drawn),160 nM
